Source: US20240207422A1, “NERVE TARGETING PEPTIDE CONJUGATES AND METHODS OF USE” (Alume Biosciences, Inc., priority 2022, published 2024)

Tested on: excised human nerve tissue
Assay: Phage display selection on excised human nerve tissue (Nerve2, Nerve3), NextGen sequence counts
Type: binding
Settings: unique sequence count (relative enrichment)
Method: Several m13 phage libraries were constructed expressing randomized variants of a parent peptide (QVPWEEPYYVVKKS-SGGL; SEQ ID NO: 576). In particular, the first 14 amino acids of the parent peptide were randomized using degenerate oligonucleotide synthesis to obtain a diverse set of peptides with a mutation rate of about 50% per residue.
To accomplish this, synthesis was carried out by the XXK codon design approach, where X is any base and K is G or T. To bias synthesis towards the parent sequence, synthesis was carried out at each X position with a mixture of about 70%-85% of the parent nucleotide and 15-30% of the remaining 3 nucleotides. The resulting molecules were inserted into fADL-1e (Antibody Design Laboratories), which is a type 3 phage display vector having a cloning site on the N-terminal side of the full-length gene III protein. The fusion proteins are directed to the periplasm by the PelB leader peptide, which is inserted in the vector […].
Collectively, the phage display libraries used in the screens comprised about 600 million peptides, with sequencing analysis confirming a mutation rate of about 50% per residue.
Phage libraries were independently processed, as follows, with five biological samples: two independent samples of excised human nerve tissue, one sample of a human nerve extract, and two independent samples of human muscle tissue, as follows:
Excised Human Nerve Tissue: For each of the two independent samples, phage were processed through multiple cycles of selection, with representative phage being isolated and sequenced after each selection cycle. Specifically, for selection using human nerve tissue, a sample of […] tissue (2 mm by 2 mm) was washed prior to mixing and incubation with a phage library. After incubation, the mixture (containing mostly intact nerves with phage particles that had variable affinity for nerves) was centrifuged and the nerve pellet washed multiple times with PBS to remove phage with little or no affinity for nerve tissue. The pellet was homogenized and plated for titering and reamplification. Phage that were bound at each round were sequenced. NextGen sequencing of pools after 2, 3 and 4 rounds of selection were used to isolate candidate sequences that were further analyzed using bioinformatics.
NextGen sequencing of pools after 2, 3 and 4 rounds of selection were used to isolate candidate sequences from each of the five samples. These five data sets were then analyzed as described in the next section.
Peptide and vector sequences were translated starting at the first start codon in the nucleotide sequence. […] Trimmed peptides with identical sequences were combined and quantified according to their frequency (count).
Following processing, an R script was written to merge the unique peptide sequences (with counts 6 or greater) from the 5 different data sets to analyze the overlap between nerve and muscle binding activity.
For the single Nerve2, Nerve3, and Plated Nerve2 (pn2) subsets, the number of counts for each group was set at a threshold giving rise to at least 100 peptides. […] As highlighted in yellow in FIG. 1B, the representative group also included 6 unique peptides overlapping between nerve2 and nerve3, 200 unique peptides overlapping between nerve2 and plated nerve2 (at least 60 counts), 4 unique peptides overlapping between nerve3 and plated nerve2. Finally, as highlighted in green in FIG. 1B, the representative group also included […] common to the nerve2, nerve3, and plated nerve2 sets.

[1] = peptides overlapping between Nerve2 and Plated Nerve2
[2] = peptides common to Nerve2, Nerve3 and Plated Nerve 2 sets

Row | Substance | Count [1] | Count (Nerve2 only) | also measured
1 | 94 (HIPFPGLYSNLDQS) [compound 94] | 127 | – | –
2 | 309 (HFQSEEPYHIPHKH) [compound 309] | – | 10 | –
3 | 72 (LIPSAYPHSLWSKS) [compound 72] | 166 | – | –
4 | 343 (QVPSEEQFYAAVKS) [compound 343] | – | 10 | –
5 | 422 (AVQRAKPYYAVQNS) [compound 422] | – | – | Count (Nerve3 only): 109
6 | 347 (QVSREEPSGVVNKP) [compound 347] | – | 10 | –
7 | 253 (LLPSDEAHYIVKHS) [compound 253] | – | 14 | –
8 | 75 (DVRWDEPYYVDEKI) [compound 75] | 161 | – | –
9 | 380 (QFTSEETHYVVNKS) [compound 380] | – | – | Count (Nerve3 only): 257
10 | 425 (QIPTVEPYYEGKKS) [compound 425] | – | – | Count (Nerve3 only): 105
11 | 158 (HVASEQPYYGVNRP) [compound 158] | 80 | – | –
12 | 367 (QFQWQELLNVVKDS) [compound 367] | – | – | Count (Nerve3 only): 327
13 | 259 (HSPSKESHYVLENM) [compound 259] | – | 13 | –
14 | 407 (HVWWEDPYYVVRKT) [compound 407] | – | – | Count (Nerve3 only): 158
15 | 215 (HILRQEPYYVLTNY) [compound 215] | 65 | – | –
16 | 419 (QIPWVEASNVLISF) [compound 419] | – | – | Count (Nerve3 only): 115
17 | 2 (DFTMQEPYYAEKKT) [compound 2] | – | – | Count [2]: 593
18 | 276 (QIPLDARSYLLKRP) [compound 276] | – | 12 | –
19 | 131 (HILLEEPSNVLNKR) [compound 131] | 96 | – | –
20 | 115 (QLPGEEPTYVGSNS) [compound 115] | 109 | – | –
21 | 336 (QLPCEVPCYLVQYS) [compound 336] | – | 10 | –
22 | 167 (DRLSDEPFKGMTHS) [compound 167] | 77 | – | –
23 | 41 (HSYREEPYYFGKRS) [compound 41] | 632 | – | –
24 | 279 (QLPWEKPYYDVEVT) [compound 279] | – | 12 | –
25 | 174 (HFEGEDLYDRVKSR) [compound 174] | 76 | – | –
26 | 152 (QVLWEERLYVVKNS) [compound 152] | 83 | – | –

Row | Substance | Count [1] | Count (Nerve2 only) | also measured
27 | 155 (QNPAEEQYIVWNNS) [compound 155] | 82 | – | –
28 | 85 (HGQTQEPSYVTVYY) [compound 85] | 139 | – | –
29 | 263 (QFPGSELTVSVIQV) [compound 263] | – | 13 | –
30 | 304 (RVPGERQYDALNLS) [compound 304] | – | 11 | –
31 | 268 (YERWEAPFYDVQKS) [compound 268] | – | 13 | –
32 | 243 (EVPSLQPYHGGKKS) [compound 243] | – | 19 | –
33 | 53 (RVPWEQSSWVVKRS) [compound 53] | 220 | – | –
34 | 70 (QVPSVQPYYIGKNT) [compound 70] | 175 | – | –
35 | 6 (QVPTEVQFYLVKEP) [compound 6] | – | – | Count [2]: 337
36 | 440 (DGLYVRSFYVLQHS) [compound 440] | – | – | Count (Nerve3 only): 86
37 | 162 (QNAFSKPYNGVKPS) [compound 162] | 80 | – | –
38 | 352 (QMPWEVPYYVVKRS) [compound 352] | – | – | Count (Nerve3 only): 548
39 | 141 (QFAWDSPYSRGKKT) [compound 141] | 90 | – | –
40 | 36 (LVPWDETHKVVQRH) [compound 36] | – | – | Count (peptides overlapping between Nerve2 and Nerve3): 14
41 | 341 (QTLAGETNSVVLKF) [compound 341] | – | 10 | –
42 | 17 (GFLGEEPYHFLAKR) [compound 17] | – | – | Count [2]: 167
43 | 339 (QLRWHEPYHVVNRY) [compound 339] | – | 10 | –
44 | 208 (QLPSQEPYNVQRKS) [compound 208] | 67 | – | –
45 | 274 (QALLEEKYTALKKS) [compound 274] | – | 12 | –
46 | 176 (QLPGEHPYYPIKKP) [compound 176] | 76 | – | –
47 | 376 (QLPWEVPYSVVRQS) [compound 376] | – | – | Count (Nerve3 only): 267
48 | 356 (QLPGYEPYYVGTVS) [compound 356] | – | – | Count (Nerve3 only): 412
49 | 261 (HYRCVGSCYVVAKS) [compound 261] | – | 13 | –
50 | 358 (QDVWAEPYYAGKQP) [compound 358] | – | – | Count (Nerve3 only): 390
51 | 249 (HFSWEERYRVVHKS) [compound 249] | – | 15 | –
